Data: US20200069775A1, “BRAIN OSTEOCALCIN RECEPTOR AND COGNITIVE DISORDERS” (The Trustees of Columbia University in the City of New York, priority 2017, published 2020)

Legend:
3 month-old WT mice = assay: Alendronate treatment with or without osteocalcin, MWMT and NOR; format: in vivo, mouse
Procedure: For plasma injection experiments, 100 μl of plasma were injected 8 times during 24 days, via tail vein. Each group described is represented individually in each panel. For osteocalcin delivery in WT mice, pumps (Alzet micro-osmotic pump, Model 1002) delivering osteocalcin (30 ng/hr for 12 month-old and 90 ng/hr for 16 month-old mice), or vehicle, were surgically installed subcutaneously in the back of mice. […] Control mice receiving vehicle or mice receiving alendronate were implanted with osmotic pumps delivering vehicle only.
Morris water maze test: Animals are transported to the testing room in their home cages, and left undisturbed for at least 30 minutes prior to the first trial. The maze is comprised of a large swimming pool (150cm diameter) filled with water (23° C.) made opaque with non-toxic white paint. The pool is located in a brightly lit room filled with visual cues, including geometric figures on the walls of the maze demarking the four fixed starting positions of the trials, at (12:00, 3:00, 6:00 and 9:00). A 15 cm round platform is hidden 1 cm beneath the surface of the water at a fixed position. Each daily trial block consisted of four swimming trials, with each mouse starting from the same randomly chosen starting position. The starting position is varied between days. On day 1, mice that fail to find the platform within 2 min are guided to the platform. They must remain on the platform for 15 s before they are returned to their home cage. Mice are not guided to the platform after day 1, and the time it takes them to reach the platform over repeated trials ([…] for the next 10 days) is recorded as a measure of spatial learning.
Novel object recognition test (NOR): The NOR paradigm assesses the rodent's ability to recognize a novel object in the environment. The NOR task will be conducted, as previously described7, in an opaque plastic box using 2 different objects: (1) a clear plastic funnel (diameter 8.5 cm, maximal height 8.5 cm) and (2) a black plastic box (9.5 cm^3). These objects elicit equal levels of exploration as determined in pilot experiments (Denny, C. A., et al., 2012, Hippocampus 22:1188-1201; Oury, F., et al., 2013, Cell 155:228-241). The NOR paradigm consists of 3 exposures over the course of 3 days. On day 1, the habituation phase, mice are given 5 minutes to explore the empty arena, without any objects. On day 2, the familiarization phase, mice are given 10 minutes to explore 2 identical objects, placed at opposite ends of the box. On day 3, the test phase, mice are given 15 minutes to explore 2 objects, one novel object and a copy of the object from the familiarization phase. The object that serves as the novel object (either the funnel or the box) as well as the left/right starting position of the objects are counterbalanced within each group. Mice are placed in the center of the arena at the start of each exposure. […] Preference for the novel object is assessed based on the fraction of time that a mouse spends exploring the novel object compared to the familiar object. Exploration is scored from video recordings of each exposure and recorded using the Stopwatch program. […]
Streptavidin were added for 30 minutes at room temperature followed by PBS washes. […] For hormonal measurement; circulating levels of the carboxylated, undercarboxylated or uncarboxylated forms of osteocalcin were measured by ELISA. CTX content in serum (ng/ml) were measured with specific ELISAs (RatLaps™ (CTX-I) EIA (Immunodiagnosticsystems).

[1] = tested on: brainstem neurons (dorsal raphe 5-HT neurons, locus coeruleus, GABAergic interneurons); assay: Whole cell current clamp recording in brainstem slices; format: cell-based, mouse; conditions: 3 μM, current clamp in slices
Procedure: Brain slice preparations and electrophysiological recordings were performed according to methods known in the art. Briefly, WT mice were anesthetized with ether and then decapitated. The brains were rapidly removed and immersed in an oxygenated bath solution at 40° C. containing (in mM): sucrose 220, KCl 2.5, CaCl2 1, MgC12 6, NaH2PO4 1.25, NaHCO3 26, and glucose 10 pH 7.3 with NaOH. Coronal slices (350 μm thick) containing dorsal raphe (DR) were cut on a vibratome and maintained in a holding chamber with artificial cerebrospinal fluid (ACSF) (bubbled with 5% CO2 and 95% O2) containing (in mM): NaCl 124, KCl 3, CaCl2 2, MgCl2 2, NaH2PO4 1.23, NaHCO3 26, glucose 10, pH 7.4 with NaOH, and were transferred to a recording chamber constantly perfused with bath solution (330 C) at 2 ml/min after at least a 1 hr recovery. Whole-cell current clamp was performed to observe action potentials in DR serotoninergic (5-HT) neurons with a Multiclamp 700A amplifier (Axon instrument, CA). Patch pipettes with a tip resistance of 4-6 MΩ were made of borosilicate glass (World Precision Instruments) with a Sutter pipette puller (P-97) and filled with a pipette solution containing (in mM): K-gluconate (or Cs-gluconate) 135, MgCl2 2, HEPES 10, EGTA 1.1, Mg-ATP 2, Na2-phosphocreatine 10, and Na2-GTP 0.3, pH 7.3 with KOH. After a giga-Ohm (GΩ) seal and whole-cell access were achieved, the series resistance (between 20 and 40 MΩ) was partially compensated by the amplifier. […] All data were sampled at 3-10 kHz and filtered at 1-3 kHz with an Apple Macintosh computer using Axograph 4.9 (Axon Instruments). Electrophysiological data were analyzed with Axograph 4.9 and plotted with Igor Pro software (WaveMetrics, Lake Oswego, Oreg.).

[2] = Blood brain barrier crossing: subcutaneous pump infusion, content in blood, bone and brain parts by ELISA; format: in vivo, mouse; conditions: ob/ob mice, subcutaneous infusion 50 ng/hour, seven days; positive control
Procedure: Osteocalcin−/−, Gprc6a−/−, Osteocalcin-mCherry, and Osteocalcin foxed mice have been previously described (Ducy et al., 1996, Nature 382:448-452; Oury et al., 2011, Cell 144:796-809). Mouse genotypes were determined by PCR. For all experiments, controls were littermate female WT, Cre-expressing, or flox/flox. All mice were maintained on a pure 129-Sv genetic background except for the inducible deletion Osteocalcin model (mix background: 25% C57/BL6 and 75% 129sv). For inducible gene deletion mice, tamoxifen was prepared in corn oil and injected intraperitoneally (IP) (1 mg/20g of body weight) over one week. For osteocalcin delivery to pregnant mice, IP injections (240 ng/day) were performed as soon as a plug was present daily until delivery (E0.5-E18.5). For osteocalcin or leptin infusion in adult Osteocalcin−/− or ob/ob mice, pumps (Alzet micro-osmotic pump, Model 1002) delivering osteocalcin (300 ng/hr), leptin (50 ng/hr), or vehicle were surgically installed subcutaneously in the backs of 3-month old mice. For the postnatal rescue of cognitive functions in Osteocalcin−/− mice, osteocalcin (10 ng/hour) or vehicle were delivered intrasubventricularly (icv) as previously described (Ducy et al., 2000, Cell 100:197-207). Leptin and osteocalcin content in sera and tissues were determined by ELISA.
To understand how this behavioral phenotype develops, whether osteocalcin crosses the blood brain barrier (BBB) was tested by installing pumps that subcutaneously delivered vehicle or uncarboxylated osteocalcin (50 ng/hour) in three-month-old Osteocalcin−/− mice. The positive control for this experiment was subcutaneous infusion of leptin (50 ng/hour) in 3 month-old ob/ob mice, since leptin is known to cross the BBB (Banks et al., 1996, Peptides 17:305-311). Seven days later, osteocalcin and leptin content were measured in blood, bone, and in various parts of the brain in Osteocalcin−/− and ob/ob mice, respectively.

[3] = tested on: Tph2, Th, Gad1 expression in brainstem and midbrain explants; assay: Gene expression (qPCR) in brainstem and midbrain explants; format: cell-based, mouse; conditions: leptin positive control; WT or Gprc6a−/− brainstem explants
Procedure: For gene expression studies, RNA was isolated from primary neurons or tissue using TRIZOL® (Invitrogen). cDNA synthesis was performed following a standard protocol from Invitrogen and qPCR analyses were done using specific quantitative PCR primers from SABiosciences (http://www.sabiosciences.com/RT2PCR.php).
Brains were dissected and incubated for 30 minutes in ice cold oxygenated artificial cerebrospinal fluid (ACSF). Brains were then sliced at 500 μm at the midbrain, −1.55 to −2.35 mm from the bregma, and at the level of the brainstem, from −4.04 to −4.48 mm and from −4.60 to −5.20 mm from the bregma, to include the median and dorsal raphe, respectively. These slices were incubated in ACSF for 1 h, constantly oxygenated (95% O2 and 5% CO2) […], after which they were treated with either osteocalcin (10 ng/ml) or PBS for four hours. Expression of Tph2, TH, GAD 1, GAD2, and Ddc was measured by qPCR.
To determine if osteocalcin acts directly on neurons to modulate neurotransmitter synthesis, several types of assays were performed. First, brainstem and midbrain explants from WT and Gprc6a^−/− mice were generated. Brains were sliced (500 μm) at the level of the median and dorsal raphe of the brainstem (from −4.04 to −4.48 mm and from −4.60 to −5.20 mm, respectively), so that they would be enriched in serotonin-producing neurons, as well as at the level of substantia nigrae and ventral tegmental areas (VTA) of the midbrain (from −1.55 to −2.35 mm and from −2.55 to −3.25 mm, respectively). Enrichment in serotoninergic and catecholaminergic neurons in these explants was verified by their high Tph2 and Th expression. While leptin, used here as a positive control, reduced, as it should, Tph2 expression in WT or Gprc6a^−/− brainstem explants, osteocalcin ([…]) increased expression of this gene 2.5 fold in both WT and Gprc6a^−/− explants. (FIG. 3D). […] Third, to further confirm that osteocalcin signals in neurons of the hindbrain, calcium flux in MPHN treated with undercarboxylated or carboxylated osteocalcin (FIG. 3F) was measured.

Molecule: NCCCC(O)(P(=O)(O)O)P(=O)(O)O [alendronate]
- bone resorption (3 month-old WT mice; 3 week-long treatment): inhibited bone resorption
- circulating levels of bioactive osteocalcin (3 month-old WT mice; 3 week-long treatment): decreased the circulating levels of bioactive osteocalcin
- learning in the MWMT (3 month-old WT mice; alendronate-treated mice): delay in learning in the MWMT
- memory in NOR (3 month-old WT mice; alendronate-treated mice): memory deficit in NOR

Molecule: CN1CC(=O)N=C1N.NCCc1c[nH]c2ccc(O)cc12.O=S(=O)(O)O [serotonin creatinine sulfate complex, reference compound]
- action potentials in dorsal raphe 5-HT neurons [1]: inhibited action potentials

B1: leptin (protein, UniProt P41160 22-167, looked up)
Leptin: VPIQKVQDDTKTLIKTIVTRINDISHTQSVSAKQRVTGLDFIPGLHPILSLSKMDQTLAVYQQVLTSLPSQNVLQIANDLENLRDLLHLLAFSKSCSLPQTSGLQKPESLDGVLEASLYSTEVVALSRLQGSLQDILQQLDVSPEC
notes: adipocyte-derived hormone, positive control known to cross the BBB
- leptin content in parts of the brain [2]: could be detected in the brainstem and hypothalamus
- Tph2 expression [3]: reduced
